Experimental data taken from ChEMBL document CHEMBL3817829, “Spirooxindoles as novel 3D-fragment scaffolds: Synthesis and screening against CYP121 from M. tuberculosis” (Bioorg Med Chem Lett, 2016).
pKd: −log10 of the molar value.

Columns and labels:
[1] = target: T1, Mycocyclosin synthase (Mycobacterium tuberculosis, UniProt P9WPP7); test: Binding affinity to Mycobacterium tuberculosis recombinant His6-tagged CYP121 expressed in Escherichia coli C41(DE3) cells assessed as change in wavelength of heme soret band at 1 mM by UV-visible spectrophotometric method; details: 1000 µM
T1 sequence (P9WPP7 whole entry): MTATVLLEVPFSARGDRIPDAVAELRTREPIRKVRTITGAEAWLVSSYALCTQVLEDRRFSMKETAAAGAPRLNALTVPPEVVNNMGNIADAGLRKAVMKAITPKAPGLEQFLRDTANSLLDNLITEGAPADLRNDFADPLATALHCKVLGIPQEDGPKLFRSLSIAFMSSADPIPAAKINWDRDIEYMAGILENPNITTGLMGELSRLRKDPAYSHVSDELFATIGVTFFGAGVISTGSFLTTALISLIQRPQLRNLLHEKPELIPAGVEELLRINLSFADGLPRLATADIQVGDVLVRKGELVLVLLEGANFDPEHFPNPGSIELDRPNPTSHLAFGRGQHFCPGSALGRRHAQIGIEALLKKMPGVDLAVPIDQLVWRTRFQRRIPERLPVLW

[2] = Solubility of compound in 50 mM Tris-Hcl/1mM EDTA at 1 mM at pH 7.5; assay type: physicochemical; details: buffer, pH 7.5, 1000 µM
[3] = target: T1, Mycocyclosin synthase; test: Binding affinity to Mycobacterium tuberculosis recombinant His6-tagged CYP121 expressed in Escherichia coli C41(DE3) cells by isothermal titration calorimetry

Row | SMILES | Activity [1] | solubility [2] | pKd [3]
1 | CCOC(=O)[C@@H]1[C@@H]2C=C[C@@H](C2)[C@@]12C(=O)Nc1ccccc12 | -1 nm | soluble | –
2 | CCOC(=O)/C=C1/C(=O)Nc2ccc(F)cc21 | 0 nm | soluble | –
3 | CCOC(=O)/C=C1/C(=O)N(C(C)=O)c2ccccc21 | 0 nm | soluble | –
4 | N#CCC1C(=O)Nc2ccc(OC(F)(F)F)cc21 (configuration not stated) | -2 nm | soluble | –
5 | N#CCC1C(=O)Nc2ccccc21 (configuration not stated) | 0 nm | soluble | –
6 | N#C[C@H]1[C@@H]2C=C[C@@H](C2)[C@]12C(=O)Nc1ccccc12 | 0 nm | soluble | –
7 | CCOC(=O)/C=C1/C(=O)Nc2ccc([N+](=O)[O-])cc21 | ND(Insoluble) | Insoluble | –
8 | N#CC1[C@@H]2C=C[C@@H](C2)C12C(=O)Nc1ccc(OC(F)(F)F)cc12 (mixture of isomers) | 0 nm | soluble | –
9 | CCOC(=O)/C=C1/C(=O)Nc2ccc(Cl)cc21 | ND(Insoluble) | Insoluble | –
10 | N#CC1[C@@H]2C=C[C@@H](C2)C12C(=O)Nc1ccccc12 (mixture of isomers) | 0 nm | soluble | –
11 | CN1C(=O)/C(=C/C#N)c2ccccc21 | 0 nm | soluble | –
12 | CCOC(=O)[C@@H]1[C@@H]2C=C[C@@H](C2)[C@@]12C(=O)Sc1ccccc12 | 0 nm | soluble | –
13 | CCOC(=O)/C=C1/C(=O)Oc2ccccc21 | -1 nm | soluble | –
14 | CCOC(=O)CC1C(=O)Nc2ccc(F)cc21 (configuration not stated) | 0 nm | soluble | –
15 | CCOC(=O)C1[C@@H]2C=C[C@@H](C2)C12C(=O)Nc1ccc([N+](=O)[O-])cc12 (mixture of isomers) | ND(Insoluble) | Insoluble | –
16 | CCOC(=O)[C@@H]1[C@@H]2C=C[C@@H](C2)[C@@]12C(=O)Nc1ccc(OC(F)(F)F)cc12 | 0 nm | soluble | –
17 | N#C/C=C1/C(=O)Nc2ccccc21 | 0 nm | soluble | –
18 | CCOC(=O)[C@@H]1[C@@H]2C=C[C@@H](C2)[C@@]12C(=O)Oc1ccccc12 | 0 nm | soluble | –
19 | CN1C(=O)C(CC#N)c2ccccc21 (configuration not stated) | 0 nm | soluble | –
20 | CCOC(=O)[C@H]1[C@@H]2C=C[C@@H](C2)[C@]12C(=O)Nc1ccc(Cl)cc12 | -1 nm | soluble | –
21 | CCOC(=O)[C@H]1[C@@H]2C=C[C@@H](C2)[C@]12C(=O)Nc1ccc(F)cc12 | 0 nm | soluble | –

Row | SMILES | Activity [1] | solubility [2] | pKd [3]
22 | CCOC(=O)/C=C1/C(=O)Nc2ccccc21 | 0 nm | soluble | –
23 | N#C/C=C1/C(=O)Nc2ccc(OC(F)(F)F)cc21 | 0 nm | soluble | –
24 | CCOC(=O)[C@H]1[C@@H]2C=C[C@@H](C2)[C@]12C(=O)N(C)c1ccccc12 | -2 nm | soluble | –
25 | CCOC(=O)[C@H]1[C@@H]2C=C[C@@H](C2)[C@]12C(=O)N(C(C)=O)c1ccccc12 | 0 nm | soluble | –
26 | CCOC(=O)CC1C(=O)Nc2ccc(Cl)cc21 (configuration not stated) | 0 nm | soluble | –
27 | CCOC(=O)[C@H]1[C@@H]2C=C[C@@H](C2)[C@]12C(=O)Oc1ccccc12 | -1 nm | soluble | –
28 | Nc1ccc2nccc(-n3cncn3)c2c1 | 3 nm | – | 4.55
29 | CCOC(=O)[C@H]1[C@@H]2C=C[C@@H](C2)[C@]12C(=O)Nc1ccc(OC(F)(F)F)cc12 | 0 nm | soluble | –
30 | CCOC(=O)/C=C1/C(=O)N(C)c2ccccc21 | 0 nm | soluble | –
31 | CCOC(=O)/C=C1/C(=O)Sc2ccccc21 | 0 nm | soluble | –
32 | CCOC(=O)[C@@H]1[C@@H]2C=C[C@@H](C2)[C@@]12C(=O)Nc1ccc(Cl)cc12 | 0 nm | soluble | –
33 | N#C[C@@H]1[C@@H]2C=C[C@@H](C2)[C@@]12C(=O)Nc1ccccc12 | 0 nm | soluble | –
34 | CCOC(=O)[C@@H]1[C@@H]2C=C[C@@H](C2)[C@@]12C(=O)N(C)c1ccccc12 | 0 nm | soluble | –
35 | CCOC(=O)[C@H]1[C@@H]2C=C[C@@H](C2)[C@]12C(=O)Nc1ccccc12 | 0 nm | soluble | –
36 | CCOC(=O)[C@H]1[C@@H]2C=C[C@@H](C2)[C@]12C(=O)Sc1ccccc12 | -1 nm | soluble | –
37 | CCOC(=O)CC1C(=O)Nc2ccc(OC(F)(F)F)cc21 (configuration not stated) | 0 nm | soluble | –
38 | CCOC(=O)/C=C1/C(=O)Nc2ccc(OC(F)(F)F)cc21 | 0 nm | soluble | –
39 | CCOC(=O)[C@@H]1[C@@H]2C=C[C@@H](C2)[C@@]12C(=O)N(C(C)=O)c1ccccc12 | 0 nm | soluble | –
40 | CCOC(=O)[C@@H]1[C@@H]2C=C[C@@H](C2)[C@@]12C(=O)Nc1ccc(F)cc12 | 0 nm | soluble | –
41 | CCOC(=O)CC1C(=O)Oc2ccccc21 (configuration not stated) | 0 nm | soluble | –
